Measured values as given in patent US5849721A, “Sulfated polysaccharides obtained from heparin, preparation process, pharmaceutical composition and use thereof” (Rhone-Poulenc Rorer S.A., priority 1992, dated 1998).

System: bleeding time
Conditions: rat, in vivo, 2 mg/kg

heparin was tested, and the “increase in the bleeding time” value was 13.
